Experimental data: patent US8802597B2, “Herbicidal pyrimidines” (E I du Pont de Nemours and Company, priority 2003, dated 2014)

Experiments:
Assay type in all cases: in vivo
[1] = test system: wild buckwheat (Polygonum convolvulus); test: Test D pre/postemergence; settings: scale 0 to 100 (100 = complete control)
How it was run: (§1)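 Formulation: non-phytotoxic solvent mix + surfactant; applied pre-emergence to seeds and post-emergence to 1–4 leaf plants (2–18 cm). Growth chamber 15–25 d; visual comparison with controls, 0 = no effect to 100 = complete control.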

[2] = test system: pigweed (Amaranthus retroflexus); test: Test D pre/postemergence; settings: scale 0 to 100 (100 = complete control)
How it was run: as §1

[3] = test system: kochia (Kochia scoparia); test: Test D pre/postemergence; settings: scale 0 to 100 (100 = complete control)
How it was run: as §1

[4] = test system: lambsquarters (Chenopodium album); test: Test D pre/postemergence; settings: scale 0 to 100 (100 = complete control)
How it was run: as §1

[5] = test system: wheat (Triticum aestivum); test: Test D pre/postemergence; settings: scale 0 to 100 (100 = complete control)
How it was run: as §1

[6] = test system: common groundsel (Senecio vulgaris); test: Test G pre/postemergence
How it was run: (§2)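 Greenhouse pre/postemergence screen with surfactant-containing solvent formulation; postemergence plants were 1- to 4-leaf stage. Percent control (0–100) was judged by eye against controls after 12–21 days.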

[7] = test system: purple nutsedge (Cyperus rotundus); test: Test G pre/postemergence
How it was run: as §2

[8] = test system: common purslane (Portulaca oleracea); test: Test G pre/postemergence
How it was run: as §2

[9] = test system: Canada horseweed (Conyza canadensis); test: Test G pre/postemergence; settings: Preemergence
How it was run: as §2

[10] = test system: spanishneedles (Bidens bipinnata); test: Test G pre/postemergence; settings: Preemergence
How it was run: as §2

[11] = test system: Russian thistle (Salsola kali); test: Test G pre/postemergence
How it was run: as §2

[12] = test system: kochia (Kochia scoparia); test: Test G pre/postemergence
How it was run: as §2

[13] = Preemergence, 62 g ai/ha, scale 0-100
[14] = Preemergence, 125 g ai/ha, scale 0-100
[15] = Preemergence, 250 g ai/ha, scale 0-100
[16] = Preemergence, 500 g ai/ha, scale 0 to 100
[17] = Postemergence, 16 g ai/ha, scale 0 to 100
[18] = Postemergence, 31 g ai/ha, scale 0 to 100
[19] = Postemergence, 62 g ai/ha, scale 0 to 100
[20] = Postemergence, 125 g ai/ha, scale 0 to 100
[21] = Preemergence, 31 g ai/ha, scale 0-100
[22] = Postemergence, 250 g ai/ha, scale 0 to 100
[23] = Preemergence, 16 g ai/ha, scale 0-100

Compound: CCOC(=O)c1nc(C2CC2)nc(N)c1Cl [Compound 4, ethyl 6-amino-5-chloro-2-cyclopropyl-4-pyrimidinecarboxylate]
- Plant response rating, Buckwheat, Wild ([1]; Postemergence, 16 g ai/ha): 80
- Plant response rating, Buckwheat, Wild ([1]; Postemergence, 31 g ai/ha): 85
- Plant response rating, Buckwheat, Wild ([1]; Postemergence, 62 g ai/ha): 100
- Plant response rating, Buckwheat, Wild ([1]; Postemergence, 125 g ai/ha): 100
- Plant response rating, Buckwheat, Wild ([1]; Preemergence, 16 g ai/ha): 60
- Plant response rating, Buckwheat, Wild ([1]; Preemergence, 31 g ai/ha): 80
- Plant response rating, Buckwheat, Wild ([1]; Preemergence, 62 g ai/ha): 100
- Plant response rating, Buckwheat, Wild ([1]; Preemergence, 125 g ai/ha): 100
- Plant response rating, Pigweed ([2]; Postemergence, 16 g ai/ha): 85
- Plant response rating, Pigweed ([2]; Postemergence, 31 g ai/ha): 100
- Plant response rating, Pigweed ([2]; Postemergence, 62 g ai/ha): 100
- Plant response rating, Pigweed ([2]; Postemergence, 125 g ai/ha): 100
- Plant response rating, Pigweed ([2]; Preemergence, 16 g ai/ha): 70
- Plant response rating, Pigweed ([2]; Preemergence, 31 g ai/ha): 90
- Plant response rating, Pigweed ([2]; Preemergence, 62 g ai/ha): 100
- Plant response rating, Pigweed ([2]; Preemergence, 125 g ai/ha): 100
- Plant response rating, Kochia ([3]; Postemergence, 16 g ai/ha): 85
- Plant response rating, Kochia ([3]; Postemergence, 31 g ai/ha): 100
- Plant response rating, Kochia ([3]; Postemergence, 62 g ai/ha): 100
- Plant response rating, Kochia ([3]; Postemergence, 125 g ai/ha): 100
- Plant response rating, Kochia ([3]; Preemergence, 16 g ai/ha): 85
- Plant response rating, Kochia ([3]; Preemergence, 31 g ai/ha): 100
- Plant response rating, Kochia ([3]; Preemergence, 62 g ai/ha): 100
- Plant response rating, Kochia ([3]; Preemergence, 125 g ai/ha): 100
- Plant response rating, Lambsquarters ([4]; Postemergence, 16 g ai/ha): 95
- Plant response rating, Lambsquarters ([4]; Postemergence, 31 g ai/ha): 100
- Plant response rating, Lambsquarters ([4]; Postemergence, 62 g ai/ha): 100
- Plant response rating, Lambsquarters ([4]; Postemergence, 125 g ai/ha): 100
- Plant response rating, Lambsquarters ([4]; Preemergence, 16 g ai/ha): 70
- Plant response rating, Lambsquarters ([4]; Preemergence, 31 g ai/ha): 80
- Plant response rating, Lambsquarters ([4]; Preemergence, 62 g ai/ha): 100
- Plant response rating, Lambsquarters ([4]; Preemergence, 125 g ai/ha): 100
- Plant response rating, Wheat ([5]; Postemergence, 16 g ai/ha): 80
- Plant response rating, Wheat ([5]; Postemergence, 31 g ai/ha): 85
- Plant response rating, Wheat ([5]; Postemergence, 62 g ai/ha): 100
- Plant response rating, Wheat ([5]; Postemergence, 125 g ai/ha): 100
- Plant response rating, Wheat ([5]; Preemergence, 31 g ai/ha): 70
- Plant response rating, Wheat ([5]; Preemergence, 62 g ai/ha): 80
- Plant response rating, Wheat ([5]; Preemergence, 125 g ai/ha): 80
- Plant response rating, Groundsel [6, 13]: 95
- Plant response rating, Groundsel [6, 14]: 95
- Plant response rating, Groundsel [6, 15]: 100
- Plant response rating, Groundsel [6, 16]: 100
- Plant response rating, Nutsedge, Purple [7, 13]: 40
- Plant response rating, Nutsedge, Purple [7, 14]: 100
- Plant response rating, Nutsedge, Purple [7, 15]: 100
- Plant response rating, Nutsedge, Purple [7, 16]: 100
- Plant response rating, Purslane [8, 13]: 60
- Plant response rating, Purslane [8, 14]: 100
- Plant response rating, Purslane [8, 15]: 100
- Plant response rating, Purslane [8, 16]: 100
- Plant response rating, Horseweed ([9]; 62 g ai/ha, scale 0-100): 100
- Plant response rating, Horseweed ([9]; 125 g ai/ha, scale 0-100): 100
- Plant response rating, Horseweed ([9]; 250 g ai/ha, scale 0-100): 100
- Plant response rating, Horseweed ([9]; 500 g ai/ha, scale 0 to 100): 100
- Plant response rating, Spanishneedles ([10]; 62 g ai/ha, scale 0-100): 100
- Plant response rating, Spanishneedles ([10]; 125 g ai/ha, scale 0-100): 100
- Plant response rating, Spanishneedles ([10]; 250 g ai/ha, scale 0-100): 100
- Plant response rating, Spanishneedles ([10]; 500 g ai/ha, scale 0 to 100): 100
- Plant response rating, Russian Thistle [11, 14]: 100
- Plant response rating, Russian Thistle [11, 15]: 100
- Plant response rating, Russian Thistle [11, 16]: 100

Compound: Nc1nc(C2CC2)nc(C(=O)OCc2ccccc2)c1Br [Compound 22, phenylmethyl 6-amino-5-bromo-2-cyclopropyl-4-pyrimidinecarboxylate]
- Plant response rating, Groundsel [6, 17]: 65
- Plant response rating, Groundsel [6, 18]: 65
- Plant response rating, Groundsel [6, 19]: 65
- Plant response rating, Groundsel [6, 20]: 85
- Plant response rating, Groundsel [6, 21]: 0
- Plant response rating, Groundsel [6, 15]: 50
- Plant response rating, Nutsedge, Purple [7, 22]: 15
- Plant response rating, Nutsedge, Purple [7, 17]: 0
- Plant response rating, Nutsedge, Purple [7, 18]: 0
- Plant response rating, Nutsedge, Purple [7, 19]: 0
- Plant response rating, Nutsedge, Purple [7, 20]: 0
- Plant response rating, Nutsedge, Purple [7, 23]: 0
- Plant response rating, Nutsedge, Purple [7, 21]: 0
- Plant response rating, Nutsedge, Purple [7, 13]: 30
- Plant response rating, Nutsedge, Purple [7, 14]: 40
- Plant response rating, Nutsedge, Purple [7, 15]: 50
- Plant response rating, Kochia [12, 22]: 100
- Plant response rating, Kochia [12, 17]: 98
- Plant response rating, Kochia [12, 18]: 98
- Plant response rating, Kochia [12, 19]: 98
- Plant response rating, Kochia [12, 20]: 100
- Plant response rating, Kochia [12, 23]: 35
- Plant response rating, Kochia [12, 21]: 70
- Plant response rating, Kochia [12, 13]: 98
- Plant response rating, Kochia [12, 14]: 100
- Plant response rating, Kochia [12, 15]: 100
- Plant response rating, Purslane [8, 22]: 98
- Plant response rating, Purslane [8, 17]: 50
- Plant response rating, Purslane [8, 18]: 55
- Plant response rating, Purslane [8, 19]: 85
- Plant response rating, Purslane [8, 20]: 95
- Plant response rating, Purslane [8, 23]: 0
- Plant response rating, Purslane [8, 21]: 0
- Plant response rating, Purslane [8, 13]: 50
- Plant response rating, Purslane [8, 14]: 70
- Plant response rating, Purslane [8, 15]: 75
- Plant response rating, Russian Thistle [11, 22]: 100
- Plant response rating, Russian Thistle [11, 17]: 95
- Plant response rating, Russian Thistle [11, 18]: 100
- Plant response rating, Russian Thistle [11, 19]: 100
- Plant response rating, Russian Thistle [11, 20]: 100
- Plant response rating, Russian Thistle [11, 23]: 65
- Plant response rating, Russian Thistle [11, 21]: 75
- Plant response rating, Russian Thistle [11, 13]: 95
- Plant response rating, Russian Thistle [11, 14]: 100
- Plant response rating, Russian Thistle [11, 15]: 100
